Measured values from the CheMixHub viscosity set.
± gives the uncertainty stated by the source.

Test: xn = mol fraction of the nth substance listed

CCOC(C)(C)C + COCCO
viscosity (293.15 K, 101 kPa, x1 = 0.0501): 1.598 ± 0.02 mPa·s
viscosity (293.15 K, 101 kPa, x1 = 0.1): 1.493 ± 0.019 mPa·s
viscosity (293.15 K, 101 kPa, x1 = 0.1508): 1.386 ± 0.018 mPa·s
viscosity (293.15 K, 101 kPa, x1 = 0.2): 1.291 ± 0.016 mPa·s
viscosity (293.15 K, 101 kPa, x1 = 0.2512): 1.198 ± 0.015 mPa·s
viscosity (293.15 K, 101 kPa, x1 = 0.299): 1.118 ± 0.014 mPa·s
viscosity (293.15 K, 101 kPa, x1 = 0.3489): 1.041 ± 0.013 mPa·s
viscosity (293.15 K, 101 kPa, x1 = 0.4): 0.971 ± 0.012 mPa·s
viscosity (293.15 K, 101 kPa, x1 = 0.4503): 0.909 ± 0.012 mPa·s
viscosity (293.15 K, 101 kPa, x1 = 0.499): 0.854 ± 0.011 mPa·s
viscosity (293.15 K, 101 kPa, x1 = 0.55): 0.803 ± 0.01 mPa·s
viscosity (293.15 K, 101 kPa, x1 = 0.61): 0.75 ± 0.01 mPa·s
viscosity (293.15 K, 101 kPa, x1 = 0.6599): 0.711 ± 0.009 mPa·s
viscosity (293.15 K, 101 kPa, x1 = 0.7): 0.682 ± 0.009 mPa·s
viscosity (293.15 K, 101 kPa, x1 = 0.7511): 0.649 ± 0.009 mPa·s
viscosity (293.15 K, 101 kPa, x1 = 0.8): 0.621 ± 0.008 mPa·s
viscosity (293.15 K, 101 kPa, x1 = 0.8489): 0.595 ± 0.008 mPa·s
viscosity (293.15 K, 101 kPa, x1 = 0.9): 0.571 ± 0.008 mPa·s
viscosity (293.15 K, 101 kPa, x1 = 0.949): 0.55 ± 0.008 mPa·s
viscosity (298.15 K, 101 kPa, x1 = 0.0501): 1.452 ± 0.019 mPa·s
viscosity (298.15 K, 101 kPa, x1 = 0.1): 1.361 ± 0.017 mPa·s
viscosity (298.15 K, 101 kPa, x1 = 0.1508): 1.267 ± 0.016 mPa·s
viscosity (298.15 K, 101 kPa, x1 = 0.2): 1.183 ± 0.015 mPa·s
viscosity (298.15 K, 101 kPa, x1 = 0.2512): 1.1 ± 0.014 mPa·s
viscosity (298.15 K, 101 kPa, x1 = 0.299): 1.029 ± 0.013 mPa·s
viscosity (298.15 K, 101 kPa, x1 = 0.3489): 0.961 ± 0.012 mPa·s
viscosity (298.15 K, 101 kPa, x1 = 0.4): 0.898 ± 0.012 mPa·s
viscosity (298.15 K, 101 kPa, x1 = 0.4503): 0.842 ± 0.011 mPa·s
viscosity (298.15 K, 101 kPa, x1 = 0.499): 0.793 ± 0.01 mPa·s
viscosity (298.15 K, 101 kPa, x1 = 0.55): 0.748 ± 0.01 mPa·s
viscosity (298.15 K, 101 kPa, x1 = 0.61): 0.7 ± 0.009 mPa·s
viscosity (298.15 K, 101 kPa, x1 = 0.6599): 0.665 ± 0.009 mPa·s
viscosity (298.15 K, 101 kPa, x1 = 0.7): 0.639 ± 0.009 mPa·s
viscosity (298.15 K, 101 kPa, x1 = 0.7511): 0.61 ± 0.008 mPa·s
viscosity (298.15 K, 101 kPa, x1 = 0.8): 0.584 ± 0.008 mPa·s
viscosity (298.15 K, 101 kPa, x1 = 0.8489): 0.561 ± 0.008 mPa·s
viscosity (298.15 K, 101 kPa, x1 = 0.9): 0.54 ± 0.007 mPa·s
viscosity (298.15 K, 101 kPa, x1 = 0.949): 0.521 ± 0.007 mPa·s
viscosity (303.15 K, 101 kPa, x1 = 0.0501): 1.327 ± 0.017 mPa·s
viscosity (303.15 K, 101 kPa, x1 = 0.1): 1.246 ± 0.016 mPa·s
viscosity (303.15 K, 101 kPa, x1 = 0.1508): 1.164 ± 0.015 mPa·s
viscosity (303.15 K, 101 kPa, x1 = 0.2): 1.089 ± 0.014 mPa·s
viscosity (303.15 K, 101 kPa, x1 = 0.2512): 1.015 ± 0.013 mPa·s
viscosity (303.15 K, 101 kPa, x1 = 0.299): 0.951 ± 0.012 mPa·s
viscosity (303.15 K, 101 kPa, x1 = 0.3489): 0.89 ± 0.012 mPa·s
viscosity (303.15 K, 101 kPa, x1 = 0.4): 0.834 ± 0.011 mPa·s
viscosity (303.15 K, 101 kPa, x1 = 0.4503): 0.784 ± 0.01 mPa·s
viscosity (303.15 K, 101 kPa, x1 = 0.499): 0.74 ± 0.01 mPa·s
viscosity (303.15 K, 101 kPa, x1 = 0.55): 0.7 ± 0.009 mPa·s
viscosity (303.15 K, 101 kPa, x1 = 0.61): 0.657 ± 0.009 mPa·s
viscosity (303.15 K, 101 kPa, x1 = 0.6599): 0.625 ± 0.008 mPa·s
viscosity (303.15 K, 101 kPa, x1 = 0.7): 0.602 ± 0.008 mPa·s
viscosity (303.15 K, 101 kPa, x1 = 0.7511): 0.575 ± 0.008 mPa·s
viscosity (303.15 K, 101 kPa, x1 = 0.8): 0.552 ± 0.008 mPa·s
viscosity (303.15 K, 101 kPa, x1 = 0.8489): 0.532 ± 0.007 mPa·s
viscosity (303.15 K, 101 kPa, x1 = 0.9): 0.512 ± 0.007 mPa·s
viscosity (303.15 K, 101 kPa, x1 = 0.949): 0.495 ± 0.007 mPa·s

CCOC(=O)c1ccccc1 + COCCOCCOC
viscosity (298.15 K, 101.33 kPa, x2 = 0.1021): 1.805 ± 0.021 mPa·s
viscosity (298.15 K, 101.33 kPa, x2 = 0.2028): 1.694 ± 0.02 mPa·s
viscosity (298.15 K, 101.33 kPa, x2 = 0.3004): 1.59 ± 0.019 mPa·s
viscosity (298.15 K, 101.33 kPa, x2 = 0.4044): 1.485 ± 0.018 mPa·s
viscosity (298.15 K, 101.33 kPa, x2 = 0.5041): 1.389 ± 0.017 mPa·s
viscosity (298.15 K, 101.33 kPa, x2 = 0.6032): 1.301 ± 0.016 mPa·s
viscosity (298.15 K, 101.33 kPa, x2 = 0.7035): 1.216 ± 0.015 mPa·s
viscosity (298.15 K, 101.33 kPa, x2 = 0.8017): 1.134 ± 0.014 mPa·s
viscosity (298.15 K, 101.33 kPa, x2 = 0.9022): 1.056 ± 0.013 mPa·s
viscosity (303.15 K, 101.33 kPa, x2 = 0.1021): 1.629 ± 0.02 mPa·s
viscosity (303.15 K, 101.33 kPa, x2 = 0.2028): 1.533 ± 0.018 mPa·s
viscosity (303.15 K, 101.33 kPa, x2 = 0.3004): 1.442 ± 0.017 mPa·s
viscosity (303.15 K, 101.33 kPa, x2 = 0.4044): 1.35 ± 0.016 mPa·s
viscosity (303.15 K, 101.33 kPa, x2 = 0.5041): 1.266 ± 0.016 mPa·s
viscosity (303.15 K, 101.33 kPa, x2 = 0.6032): 1.189 ± 0.015 mPa·s
viscosity (303.15 K, 101.33 kPa, x2 = 0.7035): 1.111 ± 0.014 mPa·s
viscosity (303.15 K, 101.33 kPa, x2 = 0.8017): 1.039 ± 0.013 mPa·s
viscosity (303.15 K, 101.33 kPa, x2 = 0.9022): 0.967 ± 0.012 mPa·s
viscosity (308.15 K, 101.33 kPa, x2 = 0.1021): 1.476 ± 0.018 mPa·s
viscosity (308.15 K, 101.33 kPa, x2 = 0.2028): 1.39 ± 0.017 mPa·s
viscosity (308.15 K, 101.33 kPa, x2 = 0.3004): 1.311 ± 0.016 mPa·s
viscosity (308.15 K, 101.33 kPa, x2 = 0.4044): 1.231 ± 0.015 mPa·s
viscosity (308.15 K, 101.33 kPa, x2 = 0.5041): 1.157 ± 0.014 mPa·s
viscosity (308.15 K, 101.33 kPa, x2 = 0.6032): 1.088 ± 0.014 mPa·s
viscosity (308.15 K, 101.33 kPa, x2 = 0.7035): 1.02 ± 0.013 mPa·s
viscosity (308.15 K, 101.33 kPa, x2 = 0.8017): 0.957 ± 0.012 mPa·s
viscosity (308.15 K, 101.33 kPa, x2 = 0.9022): 0.895 ± 0.012 mPa·s
viscosity (313.15 K, 101.33 kPa, x2 = 0.1021): 1.342 ± 0.016 mPa·s
viscosity (313.15 K, 101.33 kPa, x2 = 0.2028): 1.268 ± 0.016 mPa·s
viscosity (313.15 K, 101.33 kPa, x2 = 0.3004): 1.198 ± 0.015 mPa·s
viscosity (313.15 K, 101.33 kPa, x2 = 0.4044): 1.126 ± 0.014 mPa·s
viscosity (313.15 K, 101.33 kPa, x2 = 0.5041): 1.062 ± 0.013 mPa·s
viscosity (313.15 K, 101.33 kPa, x2 = 0.6032): 1 ± 0.013 mPa·s
viscosity (313.15 K, 101.33 kPa, x2 = 0.7035): 0.94 ± 0.012 mPa·s
viscosity (313.15 K, 101.33 kPa, x2 = 0.8017): 0.883 ± 0.011 mPa·s
viscosity (313.15 K, 101.33 kPa, x2 = 0.9022): 0.829 ± 0.011 mPa·s
viscosity (318.15 K, 101.33 kPa, x2 = 0.1021): 1.228 ± 0.015 mPa·s
viscosity (318.15 K, 101.33 kPa, x2 = 0.2028): 1.161 ± 0.014 mPa·s
viscosity (318.15 K, 101.33 kPa, x2 = 0.3004): 1.098 ± 0.014 mPa·s
viscosity (318.15 K, 101.33 kPa, x2 = 0.4044): 1.035 ± 0.013 mPa·s
viscosity (318.15 K, 101.33 kPa, x2 = 0.5041): 0.976 ± 0.012 mPa·s
viscosity (318.15 K, 101.33 kPa, x2 = 0.6032): 0.922 ± 0.012 mPa·s
viscosity (318.15 K, 101.33 kPa, x2 = 0.7035): 0.868 ± 0.011 mPa·s
viscosity (318.15 K, 101.33 kPa, x2 = 0.8017): 0.818 ± 0.011 mPa·s
viscosity (318.15 K, 101.33 kPa, x2 = 0.9022): 0.77 ± 0.01 mPa·s
